pIC50: −log10 of the molar value.
Biological target: human adenosine A2a receptor (Homo sapiens (Human), UniProt P29274)
Assay: A2a receptor binding affinity, [3H]-NECA radioligand binding test
Conditions: [3H]-NECA 37 nM; membrane from HEK-293 cells transfected with human adenosine A2a receptor
In short: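 Membranes from HEK-293 cells expressing human A2a receptor were incubated with [3H]-NECA (final 37 nM) and compound for 1 h at room temperature in 50 mM Tris, 10 mM MgCl2, 1 mM EDTA, pH 7.4. Bound ligand was filtered on PEI-coated plates and counted by scintillation to derive IC50 (μM).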

human adenosine A2a receptor, sequence (P29274 whole entry): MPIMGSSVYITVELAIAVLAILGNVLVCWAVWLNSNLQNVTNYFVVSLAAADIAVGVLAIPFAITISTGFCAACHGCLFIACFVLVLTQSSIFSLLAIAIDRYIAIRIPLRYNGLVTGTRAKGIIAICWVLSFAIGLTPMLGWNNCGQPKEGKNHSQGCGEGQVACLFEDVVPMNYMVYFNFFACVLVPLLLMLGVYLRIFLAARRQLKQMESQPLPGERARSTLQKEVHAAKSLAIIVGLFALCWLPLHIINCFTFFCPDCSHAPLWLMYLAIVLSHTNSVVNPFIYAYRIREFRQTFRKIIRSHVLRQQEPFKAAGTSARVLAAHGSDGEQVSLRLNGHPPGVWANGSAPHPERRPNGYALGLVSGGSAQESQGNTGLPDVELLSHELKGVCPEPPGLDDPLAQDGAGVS

SMILES | pIC50
C[C@H](Nc1cc2nc(-c3ccco3)nn2c(N)n1)C(=O)N1CCN(CC(C)(C)F)CC1 [Example 375, (S)-2-((5-amino-2-(furan-2-yl)-[1,2,4]triazolo[1,5-c]pyrimidin-7-yl)amino)-1-(4-(2-fluoro-2-methylpropyl)piperazin-1-yl)propan-1-one] | 8.10
Nc1nc(N2CCC[C@H]2C(=O)N2CCN(CCN3CCOCC3)CC2)nc2nc(-c3ccco3)nn12 [Example 53, 4-(2-(4-((7-amino-2-(furan-2-yl)-[1,2,4]triazolo[1,5-a][1,3,5]triazine-5-yl)-L-prolyl)piperazin-1-yl)ethyl)morpholine] | 8.10
Nc1nc(N[C@H](C(=O)N2CCN(CC(F)(F)F)CC2)C2CCCCC2)nc2nc(-c3nccs3)nn12 [Example 250, (S)-2-((7-amino-2-(thiazol-2-yl)-[1,2,4]triazolo[1,5-a][1,3,5]triazin-5-yl)amino)-2-cyclohexyl-1-(4-(2,2,2-trifluoroethyl)piperazin-1-yl)ethan-1-one] | 8.05
Nc1nc(N[C@H](C(=O)N2CCN(CC(F)F)CC2)C2CC2)nc2nc(-c3ccco3)nn12 [Example 354, (S)-2-((7-amino-2-(furan-2-yl)-[1,2,4]triazolo[1,5-a][1,3,5]triazin-5-yl)amino)-2-cyclopropyl-1-(4-(2,2-difluoroethyl)piperazin-1-yl)ethan-1-one] | 7.66
Nc1nc(N2CC[C@H]2C(=O)N2CCC(CN3CCC(C(F)(F)F)CC3)CC2)nc2nc(-c3ccco3)nn12 [Example 402, (S)-(1-(7-amino-2-(furan-2-yl)-[1,2,4]triazolo[1,5-a][1,3,5]triazin-5-yl)azetidin-2-yl)(4-((4-(trifluoromethyl)piperidin-1-yl)methyl)piperidin-1-yl)methanone] | 8.00
CC(C)(F)CN1CCN(C(=O)[C@H](CO)Nc2nc(N)n3nc(-c4ccco4)nc3n2)CC1 [Example 232, (S)-2-((7-amino-2-(furan-2-yl)-[1,2,4]triazolo[1,5-a][1,3,5]triazin-5-yl)amino)-1-(4-(2-fluoro-2-methylpropyl)piperazin-1-yl)-3-hydroxypropan-1-one] | 7.40
Nc1nc(N2CCC[C@H]2C(=O)N2CC3CCC(C2)N3C(=O)Nc2ccccc2)nc2nc(-c3ccco3)nn12 [Example 179, 3-((7-amino-2-(furan-2-yl)-[1,2,4]triazolo[1,5-a][1,3,5]triazin-5-yl)-L-prolyl)-N-phenyl-3,8-diazabicyclo[3.2.1]octane-8-carboxamide] | 8.30
Nc1nc(N2CCCC[C@H]2C(=O)N2CCN(CC(F)(F)C(F)(F)F)CC2)nc2nc(-c3ccco3)nn12 [Example 280, (S)-(1-(7-amino-2-(furan-2-yl)-[1,2,4]triazolo[1,5-a][1,3,5]triazin-5-yl)piperidin-2-yl)(4-(2,2,3,3,3-pentafluoropropyl)piperazin-1-yl)methanone] | 8.05
CC(C)(F)CN1CCN(C(=O)[C@@H]2CCN2c2nc(N)n3nc(-c4ccco4)nc3n2)CC1 [Example 108, (S)-(1-(7-amino-2-(furan-2-yl)-[1,2,4]triazolo[1,5-a][1,3,5]triazin-5-yl)azetidin-2-yl)(4-(2-fluoro-2-methylpropyl)piperazin-1-yl)methanone] | 8.05
COC[C@H](Nc1nc(N)n2nc(-c3ccco3)nc2n1)C(=O)N1CCN(C2CCC(F)(F)CC2)CC1 [Example 398, (S)-2-((7-amino-2-(furan-2-yl)-[1,2,4]triazolo[1,5-a][1,3,5]triazin-5-yl)amino)-1-(4-(4,4-difluorocyclohexyl)piperazin-1-yl)-3-methoxypropan-1-one] | 7.70
Nc1nc(N2CCC[C@H]2C(=O)N2CCN(c3ccccc3)CC2)nc2nc(-c3ccco3)nn12 [Example 151, (S)-(1-(7-amino-2-(furan-2-yl)-[1,2,4]triazolo[1,5-a][1,3,5]triazin-5-yl)pyrrolidin-2-yl)(4-phenylpiperazin-1-yl)methanone] | 7.89
CC(C)[C@H](Nc1nc(N)n2nc(-c3ccco3)nc2n1)C(=O)N1CCN(C(=O)CC(C)(C)O)CC1 [Example 369, 1-(4-((7-amino-2-(furan-2-yl)-[1,2,4]triazolo[1,5-a][1,3,5]triazin-5-yl)-L-valyl)piperazin-1-yl)-3-hydroxy-3-methylbutan-1-one] | 7.85
CC[C@H](Nc1nc(N)n2nc(-c3ccco3)nc2n1)C(=O)N1CCN(c2ccc(F)cc2F)CC1 [Example 162, (S)-2-((7-amino-2-(furan-2-yl)-[1,2,4]triazolo[1,5-a][1,3,5]triazin-5-yl)amino)-1-(4-(2,4-difluorophenyl)piperazin-1-yl)butan-1-one] | 8.10
Nc1nc(N2CCC[C@H]2C(=O)N2CC3(CN(CC(F)(F)F)C3)C2)nc2nc(-c3ccco3)nn12 [Example 345, (S)-(1-(7-amino-2-(furan-2-yl)-[1,2,4]triazolo[1,5-a][1,3,5]triazin-5-yl)pyrrolidin-2-yl)(6-(2,2,2-trifluoroethyl)-2,6-diazaspiro[3.3]heptan-2-yl)methanone] | 7.89
COC[C@H](Nc1nc(N)n2nc(-c3ccco3)nc2n1)C(=O)N1CCN(c2nccs2)CC1 [Example 305, (S)-2-((7-amino-2-(furan-2-yl)-[1,2,4]triazolo[1,5-a][1,3,5]triazin-5-yl)amino)-3-methoxy-1-(4-(thiazol-2-yl)piperazin-1-yl)propan-1-one] | 7.80
CC(C)C1CCC(N2CCN(C(=O)[C@@H]3CCCN3c3nc(N)n4nc(-c5ccco5)nc4n3)CC2)CC1 (stereo partly drawn) [Example 153, (S)-(1-(7-amino-2-(furan-2-yl)-[1,2,4]triazolo[1,5-a][1,3,5]triazin-5-yl)pyrrolidin-2-yl)(4-(4-isopropylcyclohexyl)piperazin-1-yl)methanone] | 7.92
CC(F)(F)CN1CC2(CCN(C(=O)[C@@H]3CCCN3c3nc(N)n4nc(-c5ccco5)nc4n3)CC2)C1 [Example 364, (S)-(1-(7-amino-2-(furan-2-yl)-[1,2,4]triazolo[1,5-a][1,3,5]triazin-5-yl)pyrrolidin-2-yl)(2-(2,2-difluoropropyl)-2,7-diazaspiro[3.5]nonan-7-yl)methanone] | 7.92

More lines, now with the values ahead:

pIC50 | SMILES
8.22 | Nc1nc(N2CCC[C@H]2C(=O)N2CCN(C(=O)C3CCC(O)CC3)CC2)nc2nc(-c3ccco3)nn12 (stereo partly shown) [Example 230]
9.30 | C[C@H](Nc1nc(N)n2nc(-c3ccco3)nc2n1)C(=O)N1C[C@@H]2C[C@H]1CN2Cc1ccc(F)cc1F [Example 32, (S)-2-((7-amino-2-(furan-2-yl)-[1,2,4]triazolo[1,5-a][1,3,5]triazin-5-yl)amino)-1-((1S, 4S)-5-(2,4-difluorobenzyl)-2,5-diazabicyclo[2.2.1]heptan-2-yl)propan-1-one]
8.52 | Cc1ccc(-c2nc3nc(N4CC[C@H]4C(=O)N4CCN(Cc5ccc(F)cc5F)CC4)nc(N)n3n2)o1 [Example 208, (S)-(1-(7-amino-2-(5-methylfuran-2-yl)-[1,2,4]triazolo[1,5-a][1,3,5]triazin-5-yl)azetidin-2-yl)(4-(2,4-difluorobenzyl)piperazin-1-yl)methanone]
8.70 | CC(F)(F)CN1CCC(C2CCN(C(=O)[C@@H]3CCN3c3cc4nc(-c5ccco5)nn4c(N)n3)CC2)CC1 [Example 379, (S)-(1-(5-amino-2-(furan-2-yl)-[1,2,4]triazolo[1,5-c]pyrimidin-7-yl)azetidin-2-yl)(1′-(2,2-difluoropropyl)-[4,4′-bipiperidin]-1-yl)methanone]
8.10 | Nc1nc(N2CCC[C@H]2C(=O)N2CCC(C(=O)NCc3ccccc3)CC2)nc2nc(-c3ccco3)nn12 [Example 81, 1-((7-amino-2-(furan-2-yl)-[1,2,4]triazolo[1,5-a][1,3,5]triazin-5-yl)-L-prolyl)-N-benzylpiperidin-4-carboxamide]
8.30 | CCC(O)(CC)CN1CCN(C(=O)[C@@H](Nc2nc(N)n3nc(-c4ccco4)nc3n2)C(C)C)CC1 [Example 348, (S)-2-((7-amino-2-(furan-2-yl)-[1,2,4]triazolo[1,5-a][1,3,5]triazin-5-yl)amino)-1-(4-(2-ethyl-2-hydroxybutyl)piperazin-1-yl)-3-methylbutan-1-one]
8.30 | C[C@H](Nc1nc(N)n2nc(-c3ccco3)nc2n1)C(=O)N1CCC(C2CCN(CC(C)(C)F)CC2)CC1 [Example 332, (S)-2-((7-amino-2-(furan-2-yl)-[1,2,4]triazolo[1,5-a][1,3,5]triazin-5-yl)amino)-1-(1′-(2-fluoro-2-methylpropyl)-[4,4′-bipiperidin]-1-yl)propan-1-one]
9.00 | Nc1nc(N[C@@H](Cc2ccccc2)C(=O)N2CCC(COc3ccccc3)CC2)nc2nc(-c3ccco3)nn12 [Example 3, (S)-2-((7-amino-2-(furan-2-yl)-[1,2,4]triazolo[1,5-a][1,3,5]triazin-5-yl)amino)-1-(4-(phenoxymethyl)piperidin-1-yl)-3-phenylpropan-1-one]
8.22 | CN1CCN(c2cccc(C(=O)N3CCN(C(=O)[C@@H]4CCCN4c4nc(N)n5nc(-c6ccco6)nc5n4)CC3)c2)CC1 [Example 82, (4-((7-amino-2-(furan-2-yl)-[1,2,4]triazolo[1,5-a][1,3,5]triazin-5-yl)-L-prolyl)piperazin-1-yl)(3-(4-methylpiperazin-1-yl)phenyl)methanone]
8.52 | Nc1nc(N[C@H](C(=O)N2CCN(c3ccc(F)cc3F)CC2)C2CCOCC2)nc2nc(-c3ccco3)nn12 [Example 171, (S)-2-((7-amino-2-(furan-2-yl)-[1,2,4]triazolo[1,5-a][1,3,5]triazin-5-yl)amino)-1-(4-(2,4-difluorophenyl)piperazin-1-yl)-2-(tetrahydro-2H-pyran-4-yl)ethan-1-one]
8.15 | CC(F)(F)CN1CCN(C(=O)[C@@H]2CCN2c2nc(N)n3nc(-c4ccco4)nc3n2)CC1 [Example 253, (S)-(1-(7-amino-2-(furan-2-yl)-[1,2,4]triazolo[1,5-a][1,3,5]triazin-5-yl)azetidin-2-yl)(4-(2,2-difluoropropyl)piperazin-1-yl)methanone]

Source: US20240217978A1 (CHONG KUN DANG PHARMACEUTICAL CORP., priority 2021, published 2024)
